Assay results from patent publication US8614064B2, “Methods of diagnosing atherosclerosis by measuring ApoCI” (The Johns Hopkins University, priority 2003, dated 2013).

How the values were obtained:
SR-BI = experiment: Western measurement of scavenger receptor BI level in AoSMC; type: cell-based, human; details: ApoCI-treated cells
Experimental: Confluent cultures of AoSMC were preincubated with serum-free medium for 30 min and then treated with ApoCI (2.5 μg/ml medium), HMS (58.8 μg apoA-I/ml medium and 6.2 μg ApoCI/ml medium), and C2-Ceramide (30 μM). At indicated time periods cells were harvested in PBS and pellets lysed in 10 mM HEPES buffer (pH 7.4) 5 mM EDTA, 0.25 mM EGTA, 50 mM NaF, 0.35 M sucrose, 0.1% Nonidet P-40 and protease inhibitors 2 μg/ml aprotinin, 10 μg/ml leupeptin, 5 μg/ml pepstatin, and 1 mM PMSF. Protein concentration was determined using BCA-kit (Pierce, Rockford, Ill.). 100 μg of protein was subjected to electrophoresis in denaturing conditions on 4-15% polyacrylamide gel and electro transferred onto nitrocellulose (BioRad, Rochester, N.Y.). After the transfer, membranes were blocked for 1 h at room temperature in TBS-T/5% milk. Western assay was performed using rabbit caveolin-I (1:1000), SR-BI (1:5000) or goat ABCA1 (1:1000) primary antibody (Santa Cruz Biotechnology, Santa Cruz, Calif.) and horseradish peroxidase-conjugated anti-rabbit or anti-goat antibody (Amersham Pharmacia Biotech, Piscataway, N.J.). Blots were developed using ECL^plus Western blotting detection reagents (Amersham Pharmacia Biotech) and were scanned by laser densitometry. The intensity of the signals were quantified with the ImageGuant program (Molecular Dynamic, Sunnyvale, Calif.).

Src kinase = experiment: Analysis of p53/p56 Lyn (Src) kinase expression in AoSMC; type: cell-based, human; details: ApoCI-treated cells
Experimental: Confluent cultures of AoSMC were incubated with ApoCI (2.5 μg/ml medium), ApoCIII (2.5 μg/ml medium), ApoCI-enriched HDL (1 μg apoA-I/ml medium), or […] (5 μg apoA-I/ml medium). Cells were harvested in PBS at various time intervals and stored frozen in the presence of the protease inhibitor cocktail above. Western analysis for p53/p56 Lyn kinase was performed using primary anti-Lyn p53/p56 antibody (1:300) (Santa Cruz Biotechnology) and chemiluminescence (Amersham Pharmacia Biotech, Piscataway, N.J.).

[1] = target: T1, lecithin cholesterol acyl transferase (Homo sapiens, UniProt P04180); details: % of that of apoA-I; Soutar et al. 1975; cited from earlier work
T1 sequence (P04180 25-440): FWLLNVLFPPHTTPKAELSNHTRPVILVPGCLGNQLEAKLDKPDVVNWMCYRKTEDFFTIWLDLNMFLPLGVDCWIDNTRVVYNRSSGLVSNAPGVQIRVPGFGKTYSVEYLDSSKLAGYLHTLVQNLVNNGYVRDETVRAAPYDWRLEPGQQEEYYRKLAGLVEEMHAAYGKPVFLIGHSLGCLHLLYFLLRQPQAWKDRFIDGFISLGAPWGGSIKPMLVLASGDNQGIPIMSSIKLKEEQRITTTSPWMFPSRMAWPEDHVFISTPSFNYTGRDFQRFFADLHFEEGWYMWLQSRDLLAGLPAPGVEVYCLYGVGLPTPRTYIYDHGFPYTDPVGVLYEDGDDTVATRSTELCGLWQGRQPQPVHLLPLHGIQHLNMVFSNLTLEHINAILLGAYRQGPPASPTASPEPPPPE

effect on Src kinase (Src kinase): stimulated
Substance: Apolipoprotein C-I (TPDVSSALDKLKEFGNTLEDKARELISRIKQSELSAKMREWFSETFQKVKEKLKIDS; UniProt P02654 27-83, looked up) [ApoCI, 6.6-kDa single-chain plasma protein of 57 amino acids; purified human ApoCI purchased from Academy Bio-Medical Company]
cellular level of the scavenger receptor binding protein (SR-BI) (SR-BI): transiently and significantly decreased
stimulation of lecithin cholesterol acyl transferase relative to apolipoprotein A-I [1]: ~80%
